# Results published in ChEMBL document CHEMBL4507281, “Data for DCP probe BI-4394” (2021).
# Experiments:
# [1] = test system: Tyrosine-protein kinase ABL1 (Homo sapiens), P00519 [M351T]; details: Compound concentration 100.0 nM
# [2] = test system: Tyrosine-protein kinase ABL1 (Homo sapiens), P00519 [Q252H]; details: Compound concentration 100.0 nM
# [3] = test system: Tyrosine-protein kinase ABL1 (Homo sapiens), P00519 [Y253F]; details: Compound concentration 100.0 nM
# [4] = target: Activin receptor type-1 (Homo sapiens) (UniProt Q04771); details: Compound concentration 100.0 nM
# [5] = target: RAC-gamma serine/threonine-protein kinase (Homo sapiens) (UniProt Q9Y243); details: Compound concentration 100.0 nM
# [6] = target: Cyclin-dependent kinase-like 2 (Homo sapiens) (UniProt Q92772); details: Compound concentration 100.0 nM
# [7] = target: Casein kinase I isoform gamma-3 (Homo sapiens) (UniProt Q9Y6M4); details: Compound concentration 100.0 nM
# [8] = target: Death-associated protein kinase 3 (Homo sapiens) (UniProt O43293); details: Compound concentration 100.0 nM
# [9] = target: Serine/threonine-protein kinase DCLK2 (Homo sapiens) (UniProt Q8N568); details: Compound concentration 100.0 nM
# [10] = target: Myotonin-protein kinase (Homo sapiens) (UniProt Q09013); details: Compound concentration 100.0 nM
# [11] = test system: Epidermal growth factor receptor (Homo sapiens), P00533 [L861Q]; details: Compound concentration 100.0 nM
# [12] = target: Ephrin type-A receptor 1 (Homo sapiens) (UniProt P21709); details: Compound concentration 100.0 nM
# [13] = target: Ephrin type-A receptor 2 (Homo sapiens) (UniProt P29317); details: Compound concentration 100.0 nM
# [14] = target: Ephrin type-A receptor 7 (Homo sapiens) (UniProt Q15375); details: Compound concentration 100.0 nM
# [15] = target: Fibroblast growth factor receptor 1 (Homo sapiens) (UniProt P11362); details: Compound concentration 100.0 nM
# [16] = test system: eIF-2-alpha kinase GCN2 (Homo sapiens), Q9P2K8 [S808G]; details: Compound concentration 100.0 nM
# [17] = target: G protein-coupled receptor kinase 3 (Homo sapiens) (UniProt P35626); details: Compound concentration 100.0 nM
# [18] = target: Rhodopsin kinase GRK7 (Homo sapiens) (UniProt Q8WTQ7); details: Compound concentration 100.0 nM
# [19] = target: Serine/threonine-protein kinase haspin (Homo sapiens) (UniProt Q8TF76); details: Compound concentration 100.0 nM
# [20] = target: Insulin-like growth factor 1 receptor (Homo sapiens) (UniProt P08069); details: Compound concentration 100.0 nM
# [21] = target: Inhibitor of nuclear factor kappa-B kinase subunit alpha (Homo sapiens) (UniProt O15111); details: Compound concentration 100.0 nM
# [22] = target: Inhibitor of nuclear factor kappa-B kinase subunit epsilon (Homo sapiens) (UniProt Q14164); details: Compound concentration 100.0 nM
# [23] = target: Tyrosine-protein kinase ITK/TSK (Homo sapiens) (UniProt Q08881); details: Compound concentration 100.0 nM
# [24] = target: Mitogen-activated protein kinase 8 (Homo sapiens) (UniProt P45983); details: Compound concentration 100.0 nM
# [25] = target: Mitogen-activated protein kinase kinase kinase 3 (Homo sapiens) (UniProt Q99759); details: Compound concentration 100.0 nM
# [26] = target: Dual specificity mitogen-activated protein kinase kinase 3 (Homo sapiens) (UniProt P46734); details: Compound concentration 100.0 nM
# [27] = target: Dual specificity mitogen-activated protein kinase kinase 5 (Homo sapiens) (UniProt Q13163); details: Compound concentration 100.0 nM
# [28] = target: Macrophage-stimulating protein receptor (Homo sapiens) (UniProt Q04912); details: Compound concentration 100.0 nM
# [29] = target: Serine/threonine-protein kinase mTOR (Homo sapiens) (UniProt P42345); details: Compound concentration 100.0 nM
# [30] = target: Myosin light chain kinase 2, skeletal/cardiac muscle (Homo sapiens) (UniProt Q9H1R3); details: Compound concentration 100.0 nM
# [31] = target: Myosin-IIIb (Homo sapiens) (UniProt Q8WXR4); details: Compound concentration 100.0 nM
# [32] = target: Serine/threonine-protein kinase Nek2 (Homo sapiens) (UniProt P51955); details: Compound concentration 100.0 nM
# [33] = target: Mitogen-activated protein kinase 13 (Homo sapiens) (UniProt O15264); details: Compound concentration 100.0 nM
# [34] = target: Platelet-derived growth factor receptor beta (Homo sapiens) (UniProt P09619); details: Compound concentration 100.0 nM
# [35] = target: 3-phosphoinositide-dependent protein kinase 1 (Homo sapiens) (UniProt O15530); details: Compound concentration 100.0 nM
# [36] = target: Phosphatidylinositol 3-kinase C2 domain-containing subunit gamma (Homo sapiens) (UniProt O75747); details: Compound concentration 100.0 nM
# [37] = test system: Phosphatidylinositol 4,5-bisphosphate 3-kinase catalytic subunit alpha isoform (Homo sapiens), P42336 [E545K]; details: Compound concentration 100.0 nM
# [38] = target: Phosphatidylinositol 4,5-bisphosphate 3-kinase catalytic subunit beta isoform (Homo sapiens) (UniProt P42338); details: Compound concentration 100.0 nM
# [39] = target: Serine/threonine-protein kinase PLK4 (Homo sapiens) (UniProt O00444); details: Compound concentration 100.0 nM
# [40] = target: Rho-associated protein kinase 2 (Homo sapiens) (UniProt O75116); details: Compound concentration 100.0 nM
# [41] = target: BDNF/NT-3 growth factors receptor (Homo sapiens) (UniProt Q16620); details: Compound concentration 100.0 nM
# [42] = target: Serine/threonine-protein kinase VRK2 (Homo sapiens) (UniProt Q86Y07); details: Compound concentration 100.0 nM
# [43] = target: Serine/threonine-protein kinase WNK2 (Homo sapiens) (UniProt Q9Y3S1); details: Compound concentration 100.0 nM
# [44] = target: Serine/threonine-protein kinase 25 (Homo sapiens) (UniProt O00506); details: Compound concentration 100.0 nM
# [45] = target: Histamine H4 receptor (Homo sapiens) (UniProt Q9H3N8); details: Compound concentration 10.0 uM
# Fibroblast growth factor receptor 1 (Homo sapiens), sequence (P11362 22-822 limits assumed): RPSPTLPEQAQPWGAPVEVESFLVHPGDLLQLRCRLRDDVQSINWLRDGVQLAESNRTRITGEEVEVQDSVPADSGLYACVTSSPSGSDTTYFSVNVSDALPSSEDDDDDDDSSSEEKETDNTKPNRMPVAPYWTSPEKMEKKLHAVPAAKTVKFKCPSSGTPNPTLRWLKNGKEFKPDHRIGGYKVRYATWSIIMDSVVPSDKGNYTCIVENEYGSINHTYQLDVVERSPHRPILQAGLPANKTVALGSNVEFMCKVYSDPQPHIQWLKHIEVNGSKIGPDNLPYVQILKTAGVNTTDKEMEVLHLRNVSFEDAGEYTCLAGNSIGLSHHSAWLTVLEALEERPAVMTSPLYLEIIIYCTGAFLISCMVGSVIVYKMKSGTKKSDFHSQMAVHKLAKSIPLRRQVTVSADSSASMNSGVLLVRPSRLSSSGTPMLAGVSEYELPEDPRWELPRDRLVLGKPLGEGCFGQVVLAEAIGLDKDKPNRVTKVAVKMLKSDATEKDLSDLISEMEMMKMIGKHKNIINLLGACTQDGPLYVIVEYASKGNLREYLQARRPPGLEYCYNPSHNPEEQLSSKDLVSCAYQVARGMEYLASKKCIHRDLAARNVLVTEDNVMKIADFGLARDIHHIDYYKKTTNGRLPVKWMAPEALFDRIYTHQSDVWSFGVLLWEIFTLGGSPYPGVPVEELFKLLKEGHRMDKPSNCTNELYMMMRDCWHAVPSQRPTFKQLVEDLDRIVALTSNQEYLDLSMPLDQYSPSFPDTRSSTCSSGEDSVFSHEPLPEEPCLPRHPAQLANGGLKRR
# Serine/threonine-protein kinase VRK2 (Homo sapiens), sequence (Q86Y07 whole entry): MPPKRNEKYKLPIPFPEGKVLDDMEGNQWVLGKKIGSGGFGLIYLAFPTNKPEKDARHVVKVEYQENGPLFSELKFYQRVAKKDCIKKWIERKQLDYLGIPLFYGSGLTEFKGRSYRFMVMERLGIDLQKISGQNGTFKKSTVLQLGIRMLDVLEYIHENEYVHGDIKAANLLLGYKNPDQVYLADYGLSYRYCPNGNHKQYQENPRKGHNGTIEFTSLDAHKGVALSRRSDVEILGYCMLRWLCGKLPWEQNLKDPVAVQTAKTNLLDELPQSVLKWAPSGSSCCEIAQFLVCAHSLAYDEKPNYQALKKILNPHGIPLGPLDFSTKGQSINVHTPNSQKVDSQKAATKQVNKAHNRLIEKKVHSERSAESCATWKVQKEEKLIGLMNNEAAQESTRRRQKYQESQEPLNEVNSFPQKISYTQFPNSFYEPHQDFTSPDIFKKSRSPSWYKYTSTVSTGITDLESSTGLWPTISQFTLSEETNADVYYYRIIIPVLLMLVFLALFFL
# Death-associated protein kinase 3 (Homo sapiens), sequence (O43293 whole entry, looked up): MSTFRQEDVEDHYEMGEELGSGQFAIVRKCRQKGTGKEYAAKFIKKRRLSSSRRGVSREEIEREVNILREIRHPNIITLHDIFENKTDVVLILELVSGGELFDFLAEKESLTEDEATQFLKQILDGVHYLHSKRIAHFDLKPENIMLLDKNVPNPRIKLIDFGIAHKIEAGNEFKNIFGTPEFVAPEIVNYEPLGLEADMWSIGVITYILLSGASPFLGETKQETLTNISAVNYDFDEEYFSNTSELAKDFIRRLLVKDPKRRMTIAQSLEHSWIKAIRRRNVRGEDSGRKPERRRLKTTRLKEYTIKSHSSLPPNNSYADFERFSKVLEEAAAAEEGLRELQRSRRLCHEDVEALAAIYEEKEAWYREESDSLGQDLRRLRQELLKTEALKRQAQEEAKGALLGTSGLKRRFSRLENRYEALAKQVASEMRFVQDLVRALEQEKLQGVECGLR
# Ephrin type-A receptor 2 (Homo sapiens), sequence (P29317 whole entry): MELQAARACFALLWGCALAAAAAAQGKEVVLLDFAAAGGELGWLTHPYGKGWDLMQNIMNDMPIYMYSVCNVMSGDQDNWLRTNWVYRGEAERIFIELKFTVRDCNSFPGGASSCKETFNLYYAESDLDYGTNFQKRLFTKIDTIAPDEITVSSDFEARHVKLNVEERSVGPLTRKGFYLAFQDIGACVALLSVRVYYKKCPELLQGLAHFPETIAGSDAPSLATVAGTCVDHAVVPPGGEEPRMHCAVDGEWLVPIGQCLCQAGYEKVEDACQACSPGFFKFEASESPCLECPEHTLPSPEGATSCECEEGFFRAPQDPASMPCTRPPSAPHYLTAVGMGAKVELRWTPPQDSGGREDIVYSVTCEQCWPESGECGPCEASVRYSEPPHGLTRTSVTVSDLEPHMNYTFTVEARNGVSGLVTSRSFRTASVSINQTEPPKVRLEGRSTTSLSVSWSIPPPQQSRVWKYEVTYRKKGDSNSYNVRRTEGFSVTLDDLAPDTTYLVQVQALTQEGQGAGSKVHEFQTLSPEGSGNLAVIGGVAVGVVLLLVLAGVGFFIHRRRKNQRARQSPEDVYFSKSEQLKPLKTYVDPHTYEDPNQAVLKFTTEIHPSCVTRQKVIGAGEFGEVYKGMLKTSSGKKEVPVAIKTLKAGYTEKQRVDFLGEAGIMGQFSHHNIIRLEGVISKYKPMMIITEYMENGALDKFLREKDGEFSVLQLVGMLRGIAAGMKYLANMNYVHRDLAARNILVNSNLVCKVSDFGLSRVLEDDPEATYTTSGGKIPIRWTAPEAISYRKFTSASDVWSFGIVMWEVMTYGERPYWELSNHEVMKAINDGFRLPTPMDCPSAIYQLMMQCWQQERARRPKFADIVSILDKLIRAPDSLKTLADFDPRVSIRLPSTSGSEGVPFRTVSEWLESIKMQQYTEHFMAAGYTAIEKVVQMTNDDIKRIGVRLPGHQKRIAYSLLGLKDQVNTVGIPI
# Activin receptor type-1 (Homo sapiens), sequence (Q04771 whole entry): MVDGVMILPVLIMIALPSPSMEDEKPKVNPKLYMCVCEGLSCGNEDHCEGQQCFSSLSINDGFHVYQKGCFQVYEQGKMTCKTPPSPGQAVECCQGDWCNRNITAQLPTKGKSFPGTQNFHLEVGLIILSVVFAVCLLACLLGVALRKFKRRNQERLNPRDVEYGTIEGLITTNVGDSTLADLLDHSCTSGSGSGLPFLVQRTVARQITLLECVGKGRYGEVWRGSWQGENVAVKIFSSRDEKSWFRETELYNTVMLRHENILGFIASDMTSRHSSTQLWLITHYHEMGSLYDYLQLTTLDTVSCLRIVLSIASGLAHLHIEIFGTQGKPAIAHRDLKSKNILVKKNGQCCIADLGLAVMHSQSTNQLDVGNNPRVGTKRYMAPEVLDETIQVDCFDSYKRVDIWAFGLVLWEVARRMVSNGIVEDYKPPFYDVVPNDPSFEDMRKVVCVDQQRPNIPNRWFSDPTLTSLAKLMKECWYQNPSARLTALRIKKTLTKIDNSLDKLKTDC
# Inhibitor of nuclear factor kappa-B kinase subunit alpha (Homo sapiens), sequence (O15111 whole entry): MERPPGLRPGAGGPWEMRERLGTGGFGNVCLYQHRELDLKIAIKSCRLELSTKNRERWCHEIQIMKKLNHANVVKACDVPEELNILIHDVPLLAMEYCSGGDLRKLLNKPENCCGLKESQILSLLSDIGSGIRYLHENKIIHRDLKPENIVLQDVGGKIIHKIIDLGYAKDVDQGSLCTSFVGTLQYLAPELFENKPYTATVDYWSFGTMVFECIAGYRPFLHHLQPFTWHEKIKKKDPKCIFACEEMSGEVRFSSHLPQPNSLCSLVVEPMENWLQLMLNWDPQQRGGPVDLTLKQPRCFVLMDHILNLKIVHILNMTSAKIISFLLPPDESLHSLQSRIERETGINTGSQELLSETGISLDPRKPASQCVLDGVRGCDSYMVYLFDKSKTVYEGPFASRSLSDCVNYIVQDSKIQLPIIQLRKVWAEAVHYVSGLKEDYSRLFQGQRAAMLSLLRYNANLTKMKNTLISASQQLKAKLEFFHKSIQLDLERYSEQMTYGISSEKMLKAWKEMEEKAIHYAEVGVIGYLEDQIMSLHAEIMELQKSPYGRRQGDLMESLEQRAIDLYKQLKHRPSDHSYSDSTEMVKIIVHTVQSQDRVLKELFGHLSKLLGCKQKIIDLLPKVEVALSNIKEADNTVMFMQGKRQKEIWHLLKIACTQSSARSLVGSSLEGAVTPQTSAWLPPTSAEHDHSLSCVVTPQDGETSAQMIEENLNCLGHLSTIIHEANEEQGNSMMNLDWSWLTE
# Myotonin-protein kinase (Homo sapiens), sequence (Q09013 whole entry): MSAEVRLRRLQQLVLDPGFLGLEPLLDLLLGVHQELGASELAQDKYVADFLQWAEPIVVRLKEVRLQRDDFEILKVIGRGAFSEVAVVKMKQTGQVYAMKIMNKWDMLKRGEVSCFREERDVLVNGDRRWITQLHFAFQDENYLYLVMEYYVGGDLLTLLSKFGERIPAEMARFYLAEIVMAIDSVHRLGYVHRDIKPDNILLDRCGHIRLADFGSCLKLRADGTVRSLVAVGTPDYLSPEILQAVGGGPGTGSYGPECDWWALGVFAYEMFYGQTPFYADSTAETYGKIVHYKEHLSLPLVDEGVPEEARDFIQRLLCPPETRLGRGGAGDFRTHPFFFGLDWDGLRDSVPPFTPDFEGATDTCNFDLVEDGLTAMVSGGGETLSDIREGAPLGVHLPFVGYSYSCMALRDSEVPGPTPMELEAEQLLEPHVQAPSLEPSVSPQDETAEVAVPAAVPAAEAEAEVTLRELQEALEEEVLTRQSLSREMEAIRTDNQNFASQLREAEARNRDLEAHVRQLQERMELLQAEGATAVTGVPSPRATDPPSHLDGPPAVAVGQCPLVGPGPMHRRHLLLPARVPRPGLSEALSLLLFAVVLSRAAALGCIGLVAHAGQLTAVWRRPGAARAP
# Mitogen-activated protein kinase 13 (Homo sapiens), sequence (O15264 whole entry): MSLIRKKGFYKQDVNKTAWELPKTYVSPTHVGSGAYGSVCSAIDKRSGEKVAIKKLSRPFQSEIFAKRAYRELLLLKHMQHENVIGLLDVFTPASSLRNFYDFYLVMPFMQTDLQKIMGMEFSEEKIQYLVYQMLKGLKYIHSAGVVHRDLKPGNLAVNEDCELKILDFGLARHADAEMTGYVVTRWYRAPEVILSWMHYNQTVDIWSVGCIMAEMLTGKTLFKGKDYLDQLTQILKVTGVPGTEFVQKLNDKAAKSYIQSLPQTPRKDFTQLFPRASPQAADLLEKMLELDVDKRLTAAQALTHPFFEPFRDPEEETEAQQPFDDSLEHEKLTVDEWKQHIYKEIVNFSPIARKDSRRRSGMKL
smiles,measurement,setting,value
Cn1nc(C(=O)NCc2ccc(C(=O)O)cc2)cc1-c1ccc2[nH]ccc2c1 [BI 4395],residual activity,[1],75%
same,residual activity,[2],71%
same,residual activity,[3],100%
same,residual activity,[4],99%
same,residual activity,[5],88%
same,residual activity,[6],78%
same,residual activity,[7],94%
same,residual activity,[8],86%
same,residual activity,[9],92%
same,residual activity,[10],76%
same,residual activity,[11],69%
same,residual activity,[12],95%
same,residual activity,[13],95%
same,residual activity,[14],82%
same,residual activity,[15],84%
same,residual activity,[16],94%
same,residual activity,[17],81%
same,residual activity,[18],100%
same,residual activity,[19],77%
same,residual activity,[20],91%
same,residual activity,[21],90%
same,residual activity,[22],100%
same,residual activity,[23],85%
same,residual activity,[24],88%
same,residual activity,[25],78%
same,residual activity,[26],93%
same,residual activity,[27],63%
same,residual activity,[28],100%
same,residual activity,[29],31%
same,residual activity,[30],83%
same,residual activity,[31],100%
same,residual activity,[32],95%
same,residual activity,[33],91%
same,residual activity,[34],96%
same,residual activity,[35],100%
same,residual activity,[36],100%
same,residual activity,[37],87%
same,residual activity,[38],82%
same,residual activity,[39],61%
same,residual activity,[40],82%
same,residual activity,[41],92%
same,residual activity,[42],91%
same,residual activity,[43],70%
same,residual activity,[44],91%
same,inhibition,[45],-6.14%
CCOC(=O)c1cc2cc(-c3cc(C(=O)NCc4ccc(C(=O)O)cc4)nn3C)ccc2[nH]1 [BI 4394],residual activity,[1],90%
same,residual activity,[2],92%
same,residual activity,[3],93%
same,residual activity,[4],84%
same,residual activity,[5],86%
same,residual activity,[6],88%
same,residual activity,[7],100%
same,residual activity,[8],98%
same,residual activity,[9],100%
same,residual activity,[10],87%
same,residual activity,[11],100%
same,residual activity,[12],100%
same,residual activity,[13],100%
same,residual activity,[14],97%
same,residual activity,[15],86%
same,residual activity,[16],100%
same,residual activity,[17],96%
same,residual activity,[18],86%
same,residual activity,[19],77%
same,residual activity,[20],82%
same,residual activity,[21],100%
same,residual activity,[22],66%
same,residual activity,[23],100%
same,residual activity,[24],96%
same,residual activity,[25],94%
same,residual activity,[26],100%
same,residual activity,[27],82%
same,residual activity,[28],100%
same,residual activity,[29],100%
same,residual activity,[30],89%
same,residual activity,[31],84%
same,residual activity,[32],99%
same,residual activity,[33],100%
same,residual activity,[34],86%
same,residual activity,[35],92%
same,residual activity,[36],100%
same,residual activity,[37],100%
same,residual activity,[38],88%
same,residual activity,[39],82%
same,residual activity,[40],85%
same,residual activity,[41],91%
same,residual activity,[42],98%
same,residual activity,[43],85%
same,residual activity,[44],100%
same,inhibition,[45],-1.52%
